{"source": "patent US5656662A", "about": "“Synthesis of optically pure 4-alkenyl- or 4-alkanyl-2-hydroxytetronic acids” (The Ohio State University Research Foundation, priority 1995, dated 1997)", "key": {"[1]": {"tested_on": "human platelet-rich plasma", "test": "Inhibition of arachidonic acid-induced aggregation in human platelet-rich plasma", "assay_type": "cell-based", "procedure": "The R- and S-enantiomers were tested as inhibitors of arachidonic acid-induced aggregation in human platelet-rich plasma. Data for individual experiments (2 separate donors) are given as pIC50 (log molar inhibitory concentration of each drug which blocks aggregation to arachidonic acid by 50%) Inhibitors were preincubated for 1 minute prior to addition of arachidonic acid (200-400 μM). Changes in light transmission were measured as an index of aggregation and quantified after 4 minutes."}, "human platelet": {"tested_on": "human platelet", "conditions": "cited from earlier work; for IC50: literature, read-out: IC50, inhibition of AA-induced platelet aggregation"}, "platelet function": {"tested_on": "platelet function", "conditions": "cited from earlier work"}, "[2]": {"conditions": "Homo sapiens, arithmetic average of raw data, N = 3, read-out: inhibitory concentration which blocks aggregation by 50%, AVE"}, "[3]": {"conditions": "Homo sapiens, average, N = 3, read-out: pIC50 (-1xLOG(0.000001xDATA)), AVE (converted)"}, "[4]": {"conditions": "Homo sapiens, geometric mean, N = 3, read-out: inhibitory concentration which blocks aggregation by 50%, back-transformed data (Geometric mean) AVE"}}, "note": "“And” between values parts separate entries of the source, which are not always exact repeats. Identical values can stand only once. Like-named read-outs stand apart in the source and are kept apart here."}
{"smiles": "CCCCC/C=C\\C/C=C\\C/C=C\\C/C=C\\CC[C@H]1OC(=O)C(O)=C1O", "note": "[(R)-3,4-Dihydroxy-5-[all-Z)-3,6,9,12-octadecatetraenyl]-2(51H)-furanone]", "values": [{"measurement": "IC50", "setting": "[1]; [2]", "result": 653, "unit": "µM"}, {"measurement": "IC50", "setting": "[1]; [3]", "result": 647, "unit": "µM"}, {"measurement": "IC50", "setting": "[1]; [4]", "result": 647, "unit": "µM"}, {"measurement": "IC50", "setting": "[1]; Homo sapiens, individual experiments, human platelet-rich plasma, arachidonic acid 200-400 μM, 1 minute preincubation, quantified after 4 minutes, read-out: inhibitory concentration which blocks aggregation to arachidonic acid by 50% (RAW DATA)", "result": 764, "unit": "µM"}, {"measurement": "IC50", "setting": "[1]; Homo sapiens, individual experiments, human platelet-rich plasma, arachidonic acid 200-400 μM, read-out: pIC50 (-1xLOG(0.000001xDATA)) (converted)", "result": 764, "unit": "µM"}, {"measurement": "pIC50 (-1xLOG(0.000001xDATA))", "setting": "[1]; individual experiments, human platelet-rich plasma, arachidonic acid 200-400 μM", "result": "3.269 and 3.182"}, {"measurement": "IC50", "setting": "[1]; individual experiments, human platelet-rich plasma, arachidonic acid 200-400 μM, 1 minute preincubation, quantified after 4 minutes, read-out: inhibitory concentration which blocks aggregation to arachidonic acid by 50% (RAW DATA)", "result": "538 µM and 657 µM"}]}
{"smiles": "CCCCC/C=C\\C/C=C\\C/C=C\\C/C=C\\CC[C@@H]1OC(=O)C(O)=C1O", "note": "[(S)-3,4 -Dihydroxy-5-[(all-Z)-3,6,9,12-octadecatetraenyl]-2 (5H)-furanone]", "values": [{"measurement": "IC50", "setting": "[1]; [2]", "result": 2.27, "unit": "µM"}, {"measurement": "IC50", "setting": "[1]; [3]", "result": 1.45, "unit": "µM"}, {"measurement": "IC50", "setting": "[1]; [4]", "result": 1.45, "unit": "µM"}]}
{"smiles": "O=C1OC(c2ccc(Cl)cc2)C(O)=C1O", "note": "(centres unmarked) [CHTA, 4-(4-chlorophenyl)-2-hydroxytetronic acid]", "values": [{"measurement": "antilipidemic and antiaggregatory properties", "setting": "human platelet", "result": "possesses antilipidemic and antiaggregatory properties"}, {"measurement": "inhibition of platelet function", "setting": "platelet function", "result": "inhibits platelet function by both enzyme inhibitory and ROS scavenging mechanisms resulting ultimately in the blockage of thromboxane A2 synthesis"}]}
{"smiles": "O=C1OC(c2ccc(-c3ccccc3)cc2)C(O)=C1O", "note": "(centres unmarked) [Example 4-biphenyl]", "values": [{"measurement": "IC50", "setting": "human platelet", "result": 135, "unit": "µM"}]}
{"smiles": "O=C1OC(c2ccc(-c3ccc(Cl)cc3)cc2)C(O)=C1O", "note": "(centres unmarked) [4-(4'-chlorobiphenyl)-2-hydroxytetronic acids]", "values": [{"measurement": "IC50", "setting": "human platelet", "result": 44, "unit": "µM"}]}
